{
  "source": "patent US12606795B2",
  "about": "(Thankcome Biological Science and Technology (SuZhou) Co., …, priority 2023, dated 2026)",
  "key": {"[1]": {"tested_on": "Escherichia coli WP2 uvrA", "settings": "Escherichia coli WP2A uvr −S9", "method": "(§1) Bacterial strains used were Salmonella typhimurium TA97a (National Center for Type Culture Collection NTCC, 506391), S. typhimurium TA98 (NTCC, 506392), S. typhimurium TA100 (NTCC, 506395), S. typhimurium TA1535 (NTCC, 506396), and Escherichia coli WP2 uvrA (CHI Scientific, Co., Ltd., product number: 6-1705). To prepare a drug delivery formulation, distilled water was used as a carrier to prepare a suspension (100 mg/mL) for a test item. […] Therefore, bacteria in samples for the test item were removed by a mechanical means. In the process of mixing the formulation, any soluble components for the test item was dissolved in the carrier, and then, residual bacteria were removed by centrifugation (4° C.; 8000 rpm; 10 min). After centrifugation, liquid supernatant was removed and sterile filtration was performed with a 0.22 μm filter.\n(§2) In the confirmatory mutation research, detection was performed at 15.81, 50, 158.1, 500, 1581, and 5000 μg/plate. The maximum concentration was recommended by current regulations and guidelines. […] The survival rate of test bacterial cells was checked through plate experiments in each test. If there is a dosage-related increase in the number of revertants, it is considered that the test item has mutagenicity, and/or a reproducible biology-related positive reaction targeting at least one dosage group occurs in at least one strain with or without metabolic activation."}, "[2]": {"tested_on": "S. typhimurium TA100", "settings": "TA100 −S9", "method": "as §1, §2"}},
  "data": [
    {"smiles": "COS(C)(=O)=O", "note": "[Positive control 2, methyl methylsulfonate]", "values": [
      {"measurement": "Number of revertant mutants per plate (mean ± standard deviation)", "setting": "[1]", "result": 613.40},
      {"measurement": "Number of revertant mutants per plate (mean ± standard deviation)", "setting": "[2]", "result": 1347.00}
    ]}
  ]
}
